Usually pIC50 stands for the IC50 on a negative log10 scale, so that one unit is a factor of ten. For orientation: pEC50 means the EC50 on a negative log10 scale, so that one unit is a factor of ten.

Here are results for 13 compounds from US12252481B2, “Anti-viral compounds” (Aligos Therapeutics, Inc., priority 2021, dated 2025).

pEC50, pIC50: −log10 of the molar value. Where two headings read alike, the source gives them in different places.

The target of one assay is T1, SARS-Cov-2 3CLpro (Severe acute respiratory syndrome coronavirus 2, UniProt P0DTD1).
T1 construct: 3CLpro and HRV3C was added using a Multidrop Combi
Put plainly: biochemical. The following applies: 3CLpro, 30 mins preincubation, SAMDI-MS; read-out: SARS-Cov-2 IC50 (class).

The target in a further assay is T2, HRV3C (Human rhinovirus 14, UniProt P03303).
T2 construct: 3CLpro and HRV3C was added using a Multidrop Combi
T2 sequence (P03303 1538-1719): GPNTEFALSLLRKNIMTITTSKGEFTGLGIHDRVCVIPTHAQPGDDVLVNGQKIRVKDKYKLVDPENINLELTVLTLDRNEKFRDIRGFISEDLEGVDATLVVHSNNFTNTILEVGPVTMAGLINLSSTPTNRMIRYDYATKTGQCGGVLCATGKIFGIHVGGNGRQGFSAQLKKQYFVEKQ
Put plainly: biochemical. On the set-up: species or system HRV. The following applies: HRV3C, 30 mins preincubation, SAMDI-MS; read-out: HRV IC50 (bound).

In assay [1] the test system is human beta-coronavirus OC43. Put plainly: OC43 coronavirus antiviral assay in HeLa cells (cytopathic effect, cell-titer-glo). The following applies: Betacoronavirus 1, OC43, HeLa, 144 h, 6 days at 33° C. It is filed as cell-based.
Assay [2] has as its system B.1.1.7 lineage SARS-CoV-2. Put plainly: microbe, parasite or virus in culture. It is filed as cell-based. The following applies: Severe acute respiratory syndrome coronavirus 2, 96 h; read-out: A549-dual_ACE2_TMPRSS2 (EC50).
A further assay addresses T3, human cathepsin L (Homo sapiens, UniProt P07711).
T3 construct: purchased R&D Systems
Kind of assay: Cathepsin L assay (Z-FR-AMC fluorescence). The following applies: 10 pM human cathepsin L, 30 mins preincubation, Z-FR-AMC 2 μM. It is filed as biochemical. On the procedure:
For the cathepsin L assay, 10 pM of human cathepsin L (R&D Systems; Minneapolis, MN) was preincubated for 30 mins with test compounds. Reactions were initiated by the addition of a peptide substrate Z—FR-AMC (final concentration 2 μM, Anaspec; Fremont, CA). Fluorescence was measured at 2-minute intervals for 30 mins using a 355/460 excitation/emission filter module on an Envision plate reader (Perkin Elmer; Waltham, MA). The IC50 values were calculated for each assay by fitting the curves using a four-parameter equation in GraphPad Prism.

T3 sequence (P07711 114-333): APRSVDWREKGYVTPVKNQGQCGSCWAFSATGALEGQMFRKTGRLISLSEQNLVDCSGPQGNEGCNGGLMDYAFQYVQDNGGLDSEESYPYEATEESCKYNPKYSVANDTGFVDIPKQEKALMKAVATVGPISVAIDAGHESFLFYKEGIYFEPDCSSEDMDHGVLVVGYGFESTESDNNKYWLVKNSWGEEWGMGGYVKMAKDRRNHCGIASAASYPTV

For `COC(C)(C)[C@H](NC(=O)C(F)(F)C(F)(F)F)C(=O)N1C[C@H]2[C@@H]([C@H]1C(=O)N[C@H](C#N)C[C@@H]1CCNC1=O)[C@H]1C=C[C@@H]2C1` [Compound 131], the pIC50 was greater than 7.70 on SARS-Cov-2 3CLpro, less than 6.30 on HRV3C and no more than 5.00 on human cathepsin L. The pEC50 in assay [1] (read-out: EC50 (class)) and in assay [2] was greater than 7.00 each time.
Consider `CC(C)(C)[C@H](NC(=O)C(F)(Cl)Cl)C(=O)N1C[C@@H]2[C@@H]3CC[C@@H](C3)[C@@H]2[C@H]1C(=O)N[C@H](C#N)C[C@@H]1CCNC1=O` [Compound 67, (1S,2S,3S,6R,7R)—N-[(1S)-1-cyano-2-[(3S)-2-oxopyrrolidin-3-yl]ethyl]-4-[(2S)-2-(2,2-dichloro-2-fluoroacetamido)-3,3-dimethylbutanoyl]-4-azatricyclo[5.2.1.0^{2,6}]decane-3-carboxamide], for which the pIC50 at SARS-Cov-2 3CLpro was greater than 7.70; at HRV3C, less than 5.00; against human cathepsin L it was no more than 5.00. Moreover, the pEC50 in assay [1] (read-out: EC50 (class)) and in assay [2] was greater than 7.00 throughout.
With `CO[C@](C)(C(=O)N[C@H](C(=O)N1C[C@H]2[C@@H]([C@H]1C(=O)N[C@H](C#N)C[C@@H]1CCNC1=O)[C@H]1C=C[C@@H]2C1)C(C)(C)C)C(F)(F)F` [Compound 78], the values for the pIC50 on SARS-Cov-2 3CLpro, at HRV3C and against human cathepsin L were 6.70 to 7.70, less than 5.00 and no more than 5.00, respectively. Also, the pEC50 was 5.00 to 6.00 in assay [1] (read-out: EC50 (class)) and 6.00 to 7.00 in assay [2].
On to `CC(C)(C)[C@H](NC(=O)C(F)F)C(=O)N1C[C@H]2[C@@H]([C@H]1C(=O)N[C@H](C#N)C[C@@H]1CCNC1=O)[C@H]1C=C[C@@H]2C1` [Compound 72, (1S,3aR,4S,7R,7aS)-N-((S)-1-cyano-2-((S)-2-oxopyrrolidin-3-yl)ethyl)-2-((S)-2-(2,2-difluoroacetamido)-3,3-dimethylbutanoyl)-2,3,3a,4,7,7a-hexahydro-1H-4,7-methanoisoindole-1-carboxamide], for which the pIC50 at SARS-Cov-2 3CLpro is greater than 7.70; on HRV3C, less than 5.00; against human cathepsin L, no more than 5.00. The pEC50 in assay [1] (read-out: EC50 (class)) and in assay [2] was greater than 7.00 in each case.
For the compound `CC(C)(C)[C@H](NC(=O)C(F)(F)C(F)(F)F)C(=O)N1C[C@H]2[C@@H]([C@H]1C(=O)N[C@H](C#N)C[C@@H]1CCNC1=O)[C@H]1C=C[C@@H]2C1(F)F` [Compound 129, (1R,2R,3S,6S,7S)—N-[(1S)-1-cyano-2-[(3S)-2-oxopyrrolidin-3-yl]ethyl]-4-[(2S)-3,3-dimethyl-2-(2,2,3,3,3-pentafluoropropanamido)butanoyl]-10,10-difluoro-4-azatricyclo[5.2.1.0^{2,6}]dec-8-ene-3-carboxamide], the pIC50 is greater than 7.70 at SARS-Cov-2 3CLpro, less than 6.30 on HRV3C and no more than 5.00 on human cathepsin L. Further, the pEC50 in assay [1] (read-out: EC50 (class)) and in assay [2] was greater than 7.00 each time.
With `CC(C)(C)[C@H](NC(=O)C(F)(F)F)C(=O)N1C[C@@H]2[C@@H]([C@@H]3C=C[C@H]2CC3)[C@@H]1C(=O)N[C@H](C#N)C[C@@H]1CCNC1=O` (relative stereo) [Compound 59a, (1R*,3aS*,4R*,7S*,7aR*)-N-((S)-1-cyano-2-((S)-2-oxopyrrolidin-3-yl)ethyl)-2-((S)-3,3-dimethyl-2-(2,2,2-trifluoroacetamido)butanoyl)-2,3,3a,4,7,7a-hexahydro-1H-4,7-ethanoisoindole-1-carboxamide], the pIC50 was 5.70 to 6.70 at SARS-Cov-2 3CLpro, less than 5.00 at HRV3C and no more than 5.00 against human cathepsin L. Moreover, the pEC50 is less than 5.00 in assay [1] (read-out: EC50 (bound)) and 5.00 to 6.00 in assay [2].
For `CC(C)(C)[C@H](NC(=O)C(F)(F)Cl)C(=O)N1C[C@H]2[C@@H]([C@H]1C(=O)N[C@H](C#N)C[C@@H]1CCNC1=O)[C@H]1C=C[C@@H]2C1(F)F` [Compound 128, (1R,2R,3S,6S,7S)-4-[(2S)-2-(2-chloro-2,2-difluoroacetamido)-3,3-dimethylbutanoyl]-N-[(1S)-1-cyano-2-[(3S)-2-oxopyrrolidin-3-yl]ethyl]-10,10-difluoro-4-azatricyclo[5.2.1.0^{2,6}]dec-8-ene-3-carboxamide], the pIC50 was greater than 7.70 on SARS-Cov-2 3CLpro, less than 6.30 at HRV3C and no more than 5.00 against human cathepsin L. Besides, the negative-log EC50 (pEC50) in assay [1] (read-out: EC50 (class)) and in assay [2] was greater than 7.00 in each case.
On to `CC(C)(F)C(=O)N[C@H](C(=O)N1C[C@H]2[C@@H]([C@H]1C(=O)N[C@H](C#N)C[C@@H]1CCNC1=O)[C@H]1C=C[C@@H]2C1)C(C)(C)C` [Compound 74], for which the results for the pIC50 on SARS-Cov-2 3CLpro, at HRV3C and at human cathepsin L were greater than 7.70, less than 5.00 and no more than 5.00, respectively. For the same compound, the pEC50 in assay [1] (read-out: EC50 (class)) and in assay [2] was greater than 7.00 throughout.
For the compound `CC(C)(C)[C@H](NC(=O)C(F)(F)F)C(=O)N1C[C@H]2[C@@H]([C@H]1C(=O)N[C@H](C#N)C[C@@H]1CCNC1=O)[C@H]1CC[C@@H]2O1` (relative stereo) [Compound 58b], the results for the pIC50 on SARS-Cov-2 3CLpro, at HRV3C and on human cathepsin L were 5.70 to 6.70, less than 5.00 and no more than 5.00, respectively. Besides, the pEC50 in assay [1] (read-out: EC50 (class)) and in assay [2] was 5.00 to 6.00 throughout.
`COC(C)(C)C(=O)N[C@H](C(=O)N1C[C@H]2[C@@H]([C@H]1C(=O)N[C@H](C#N)C[C@@H]1CCNC1=O)[C@H]1C=C[C@@H]2C1)C(C)(C)C` [Compound 77]: the pIC50 at SARS-Cov-2 3CLpro was 6.70 to 7.70; on HRV3C, less than 5.00; against human cathepsin L, no more than 5.00. Besides, the figures for the pEC50 in assay [1] (read-out: EC50 (class)) and in assay [2] were 5.00 to 6.00 and 6.00 to 7.00, respectively.
For `CC(C)(C)[C@H](NC(=O)C(C)(C)C(F)(F)F)C(=O)N1C[C@H]2[C@@H]([C@H]1C(=O)N[C@H](C#N)C[C@@H]1CCNC1=O)[C@H]1C=C[C@@H]2C1` [Compound 75], in that order: greater than 7.70, less than 5.00, no more than 5.00, 6.00 to 7.00 and greater than 7.00.
The like results for `CC(C)(C)[C@H](NC(=O)C1(F)CC1)C(=O)N1C[C@@H]2[C@@H]3CC[C@@H](C3)[C@@H]2[C@H]1C(=O)N[C@H](C#N)C[C@@H]1CCNC1=O` [Compound 64, (1S,2S,3S,6R,7R)—N-[(1S)-1-cyano-2-[(3S)-2-oxopyrrolidin-3-yl]ethyl]-4-[(2S)-2-[(1-fluorocyclopropyl)formamido]-3,3-dimethylbutanoyl]-4-azatricyclo[5.2.1.0^{2,6}]decane-3-carboxamide] were, in that order, greater than 7.70, less than 5.00, no more than 5.00, greater than 7.00 and greater than 7.00.
For `CC(F)(F)C(=O)N[C@H](C(=O)N1C[C@H]2[C@@H]([C@H]1C(=O)N[C@H](C#N)C[C@@H]1CCNC1=O)[C@H]1C=C[C@@H]2C1)C(C)(C)C` [Compound 73], in that order: greater than 7.70, less than 5.00, no more than 5.00, greater than 7.00 and greater than 7.00.
